From PubChem BioAssay AID2060902 (Molecular Pharmacology Branch, DTP, NCI, 2025)

Tested on: 485368-065-R3-J5-PDC spheroids with HUVEC/MSC, viability
Assay: Anticancer human tumor 485368-065-R3-J5-PDC patient-derived pancreatic carcinoma cell line growth inhibition [RAS]
Settings: for IC50: curve of first compound; for viability, T/C: stronger effect = lower value
How it was run: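 Agents were tested in combination matrices in half-log decrements from a top concentration at or near clinical Cmax (10 microM if undetermined). Targets were multi-cell spheroids of tumour lines plus HUVEC and MSC stromal cells.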

[1] = second compound 0.000949 µM, first compound 0.0316 µM
[2] = second compound 0.000949 µM, first compound 0.1 µM
[3] = second compound 0.000949 µM, first compound 0.316 µM
[4] = second compound 0.000949 µM, first compound 1 µM
[5] = second compound 0.003 µM, first compound 0.0316 µM
[6] = second compound 0.003 µM, first compound 0.1 µM
[7] = second compound 0.003 µM, first compound 0.316 µM
[8] = second compound 0.003 µM, first compound 1 µM
[9] = second compound 0.00949 µM, first compound 0.0316 µM
[10] = second compound 0.00949 µM, first compound 0.1 µM
[11] = second compound 0.00949 µM, first compound 0.316 µM
[12] = second compound 0.00949 µM, first compound 1 µM
[13] = second compound 0.03 µM, first compound 0.0316 µM
[14] = second compound 0.03 µM, first compound 0.1 µM
[15] = second compound 0.03 µM, first compound 0.316 µM
[16] = second compound 0.03 µM, first compound 1 µM
[17] = second compound 0.0949 µM, first compound 0.0316 µM
[18] = second compound 0.0949 µM, first compound 0.1 µM
[19] = second compound 0.0949 µM, first compound 0.316 µM
[20] = second compound 0.0949 µM, first compound 1 µM
[21] = second compound 0.3 µM, first compound 0.0316 µM
[22] = second compound 0.3 µM, first compound 0.1 µM
[23] = second compound 0.3 µM, first compound 0.316 µM
[24] = second compound 0.3 µM, first compound 1 µM
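Note: spheroids exposed to agents for seven days before readout.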

Structure (SMILES): C=CC(=O)Nc1cc(Nc2nccc(-c3cn(C)c4ccccc34)n2)c(OC)cc1N(C)CCN(C)C + CCn1c(-c2cc(N3CCN(C)CC3)cnc2C(C)OC)c2c3cc(ccc31)-c1csc(n1)CC(NC(=O)C1CC1C)C(=O)N1CCCC(N1)C(=O)OCC(C)(C)C2
- IC50 (second compound 0.000949 µM): < 0.00316 µM
- IC50 (second compound 0.003 µM): < 0.00316 µM
- IC50 (second compound 0.00949 µM): < 0.00316 µM
- IC50 (second compound 0.03 µM): < 0.00316 µM
- IC50 (second compound 0.0949 µM): < 0.00316 µM
- IC50 (second compound 0.3 µM): < 0.00316 µM
- viability, T/C (second compound 0.000949 µM, first compound 0.00316 µM): 38.2%
- viability, T/C (second compound 0.000949 µM, first compound 0.01 µM): 34.1%
- viability, T/C [1]: 30.4%
- viability, T/C [2]: 28.6%
- viability, T/C [3]: 25.3%
- viability, T/C [4]: 17.8%
- viability, T/C (second compound 0.003 µM, first compound 0.00316 µM): 21.1%
- viability, T/C (second compound 0.003 µM, first compound 0.01 µM): 19.9%
- viability, T/C [5]: 18.6%
- viability, T/C [6]: 14.6%
- viability, T/C [7]: 13.4%
- viability, T/C [8]: 10.9%
- viability, T/C (second compound 0.00949 µM, first compound 0.00316 µM): 16.4%
- viability, T/C (second compound 0.00949 µM, first compound 0.01 µM): 15.7%
- viability, T/C [9]: 15.5%
- viability, T/C [10]: 13.1%
- viability, T/C [11]: 9.97%
- viability, T/C [12]: 7.7%
- viability, T/C (second compound 0.03 µM, first compound 0.00316 µM): 13%
- viability, T/C (second compound 0.03 µM, first compound 0.01 µM): 11.8%
- viability, T/C [13]: 9.7%
- viability, T/C [14]: 9.51%
- viability, T/C [15]: 7.35%
- viability, T/C [16]: 5.44%
- viability, T/C (second compound 0.0949 µM, first compound 0.00316 µM): 8.87%
- viability, T/C (second compound 0.0949 µM, first compound 0.01 µM): 9.53%
- viability, T/C [17]: 8.8%
- viability, T/C [18]: 6.02%
- viability, T/C [19]: 6.17%
- viability, T/C [20]: 3.77%
- viability, T/C (second compound 0.3 µM, first compound 0.00316 µM): 8.98%
- viability, T/C (second compound 0.3 µM, first compound 0.01 µM): 8.98%
- viability, T/C [21]: 7.33%
- viability, T/C [22]: 7.51%
- viability, T/C [23]: 4.7%
- viability, T/C [24]: 3.38%

Structure (SMILES): CC(C)NCC(C(=O)N1CCN(c2ncnc3c2C(C)CC3O)CC1)c1ccc(Cl)cc1 (centres undefined) + CCn1c(-c2cc(N3CCN(C)CC3)cnc2C(C)OC)c2c3cc(ccc31)-c1csc(n1)CC(NC(=O)C1CC1C)C(=O)N1CCCC(N1)C(=O)OCC(C)(C)C2
- IC50 (second compound 0.000949 µM): < 0.0316 µM
- IC50 (second compound 0.003 µM): < 0.0316 µM
- IC50 (second compound 0.00949 µM): < 0.0316 µM
- IC50 (second compound 0.03 µM): < 0.0316 µM
- IC50 (second compound 0.0949 µM): < 0.0316 µM
- IC50 (second compound 0.3 µM): < 0.0316 µM
- viability, T/C [1]: 40.8%
- viability, T/C [2]: 36.3%
- viability, T/C [3]: 29.3%
- viability, T/C [4]: 23.7%
- viability, T/C (second compound 0.000949 µM, first compound 3.16 µM): 18.2%
- viability, T/C (second compound 0.000949 µM, first compound 10 µM): 16.4%
- viability, T/C [5]: 22.7%
- viability, T/C [6]: 21.8%
- viability, T/C [7]: 17.9%
- viability, T/C [8]: 14.6%
- viability, T/C (second compound 0.003 µM, first compound 3.16 µM): 11.9%
- viability, T/C (second compound 0.003 µM, first compound 10 µM): 8.84%
- viability, T/C [9]: 15.5%
- viability, T/C [10]: 16.6%
- viability, T/C [11]: 15.6%
- viability, T/C [12]: 14%
- viability, T/C (second compound 0.00949 µM, first compound 3.16 µM): 10.2%
- viability, T/C (second compound 0.00949 µM, first compound 10 µM): 7.3%
- viability, T/C [13]: 11.7%
- viability, T/C [14]: 13.6%
- viability, T/C [15]: 12.6%
- viability, T/C [16]: 10.5%
- viability, T/C (second compound 0.03 µM, first compound 3.16 µM): 7.29%
- viability, T/C (second compound 0.03 µM, first compound 10 µM): 6.75%
- viability, T/C [17]: 10.1%
- viability, T/C [18]: 9.26%
- viability, T/C [19]: 7.76%
- viability, T/C [20]: 7.82%
- viability, T/C (second compound 0.0949 µM, first compound 3.16 µM): 7.22%
- viability, T/C (second compound 0.0949 µM, first compound 10 µM): 6.12%
- viability, T/C [21]: 8.98%
- viability, T/C [22]: 7.69%
- viability, T/C [23]: 8.06%
- viability, T/C [24]: 7.28%
- viability, T/C (second compound 0.3 µM, first compound 3.16 µM): 6.22%
- viability, T/C (second compound 0.3 µM, first compound 10 µM): 5.13%
